Assay [1] relates to mammary adenocarcinoma 16/c. The assay is described as follows: mammary adenocarcinoma 16/c implanted sc in C3H mice. The class given is in vivo, mouse. Particulars: ip, q4D × 5. The protocol:
Compound No. 1 from Table A was also tested in a further in vivo tumor model, mammary adenocarcinoma 16/c, a tumor model sensitive to DNA binders and alkylating agents. In this experiment, the tumor was implanted sc in C3H mice, and the drug was administered ip or iv on an intermittant treatment schedule, i.e., once on days 1, 5, 9, 13 and 17. Tumors were measured 3 weeks after implantation, and activity was assessed by degree of tumor growth inhibition.

Assay [2] deals with mammary adenocarcinoma 16/c. Particulars: general statement on the positive control; cited from earlier work.
The next assay relates to ADJ-PC6 Plasmacytoma. The assay is described as follows: ADJ-PC6 Plasmacytoma implanted sc in BALB/c female mice. The class given is in vivo, mouse. Here is the method:
Likewise, Compound No. 1 from Table A was tested in an additional in vivo tumor model known as ADJ-PC6 Plasmacytoma. In this assay, tumor cells are carried by serial sc passage in BALB/c female mice and then collected aseptically on ca. day 21 and minced in Hank's balanced salt solution. The cells are then dispersed by homogenization in a loose-fitting teflon glass homogenizer, and cell concentration is adjusted to 4×10^6 viable ([…]) cells per ml by hemocytometer counts. A total of 0.5 ml (2×10^6 cells) is implanted sc on the right flank of BALB/c female mice in groups of 8. Treatment is given ip on Days 1-10, and tumors are measured in perpendicular diameters with a vernier caliper on Day 18. Tumor volume is calculated by multiplying length×width^2×0.5. Generally, ≥75% inhibition of tumor growth reflects significant antitumor effect.

The next assay relates to B16 melanoma. The assay is described as follows: in vivo ip B16 melanoma in mice. Details: species or system mouse. The protocol: In this system, groups of eight B6D2F1 mice are inoculated ip with 0.5 ml of a 10% (w:v) brei of B16 melanoma prepared from pooled sc tumors excised at 14-21 days from […] donor mice. Daily treatment is begun 24 hours after tumor implantation and is continued daily for ten (10) days. The route of drug administration is ip. The mice are monitored daily for survival for sixty (60) days. Antitumor activity is assessed by prolongation of median survival time. An ILS of ≥25% indicates activity in this tumor model.
Similarly, in another additional in vivo tumor model, namely B16 melanoma in mice, Compound No. 1 from Table A, administered ip in a dosage schedule of 8, 4, 2, 1 and 0.5 mg/kg produced an average increase in lifespan (ILS) of 32% at a maximally tolerated dose (MTD) of 3.4 μM/kg.

For assay [3], the system named is M5076 reticulum cell sarcoma. The assay is described as follows: ip implanted M5076 reticulum cell sarcoma in mice. Format: in vivo, mouse. Particulars: mice bearing ip M5076; ip qD × 10; slash-separated figures are separate experiments. Here is the method:
Another chemosensitive tumor model is intraperitoneally (ip) implanted M5076 reticulum cell sarcoma in mice. In this system B6D2F female mice are inoculated with 0.5 ml of a 10 percent (w:v) brei of M5076 prepared from pooled subcutaneous (sc) tumors excised at about 21 days from C57B1/6 donors. Drugs are administered ip. Daily treatement is begun 24 hours after implantation and is continued for ten days. The treatment regimen for M5076 is more prolonged than for P388 because of the slower growth rate and longer control survival time of the M5076 tumor. The antitumor activity of Compounds No. 1 and No. 2 of Table A in the M5076 reticulum cell sarcoma tumor model is set forth in Table 2.

Assay [4] deals with P388 lymphocytic leukemia. The assay is described as follows: in vivo ip P388 leukemia mouse model. Particulars: for ILS relative to cisplatin / activity in the P388 leukemia assay: ip P388, in words; for ILS (Max), maximum increase in lifespan: mice bearing ip P388 leukemia, ip days 1-5, slash-separated figures are separate experiments. An excerpt: P388 lymphocytic leukemia is currently the most widely used animal tumor model for screening for antitumor agents and for detailed evaluation of active compounds. This tumor system is widely accepted as an antitumor agent screening tool because it is sensitive to virtually all of the clinically active antineoplastic agents; quantitative and reproducible; amenable for large-scale screening; and predictive for activity in other animal tumor models.
10^6 P388 leukemia cells are inoculated ip in B6D2F1 mice. Twenty-four hours later, if the tumor inoculum proves to be free of bacterial contamination (as determined by 24 hours incubation in thioglycollate broth), animals are randomized into groups of 6 and housed in shoebox cages. […] An equal volume of saline is added; if the drug comes out of solution an equal volume of polyethoxylated castor oil is added and then saline qs to a concentration such that the desired dose is delivered in 0.5 ml. The final concentration of DMA, ethanol and polyethoxylated castor oil is 10 percent. Dilutions for lower doses are made with saline so there is a decreasing proportion of organic solvents in the vehicle with decreasing dosage. These vehicles provide soluble formulations (or suspensions). Formulations are prepared immediately prior to injection. The compound is administered ip on Days 1 through 5 (i.e. treatment is initiated 24 hrs after tumor inoculation). Each experiment includes three groups of 6 animals as untreated controls and animals treated with a positive control, cisplatin, at two dose levels. Animals are weighed as a group on Days 1, 5 and 9 and average weight change (Δwt.) is used as a reflection of toxicity. Each experiment also includes an inoculum titration--groups of 8 mice inoculated ip with 10^5 to 10° P388 leukemia cells. The titration is used to calculate cell kill achieved by treatment with drugs. Animals are monitored daily for mortality and experiments are terminated after 45 days. The endpoint is median survival time (MST) and increase in lifespan (ILS) which is the percentage of increase in MST relative to untreated controls. Untreated controls inoculated ip with 10^6 P388 leukemia cells generally survive for a median of 10 or 11 days. A drug is considered active if it produces ≥25 percent ILS.

The next assay relates to B16 melanoma cells. In words: B16 mouse melanoma cell clonogenic cytotoxicity assay in vitro, two hour exposure. Format: cell-based. Conditions: B16 cloning efficiency; 2 hour exposure; 10% fetal calf serum. The protocol: The B16 mouse melanoma cell assay measures the ability of a compound to inhibit the clonogenic capacity of cells in vitro following a two hour exposure to the compound.
B16 melanoma (highly metastatic subline, F10) are used and maintained as monolayer cultures in Minimal Essential Media (Grand Island Biological Co., Grand Island, N.Y.) supplemented with 10% calf serum, 1% antibiotics in a 5% CO2 humidified incubator at 37° C. Asynchronous populations of cells are harvested and replated to 5000 cells/plate in sterile 60 mm×15 mm petri plates. Plates are incubated overnight to allow attachment of the cells to the plate. Cells are treated with the compound to be evaluated under sterile conditions, allowed to react for 2 hours followed by aspiration of medium. Plates are washed one time with 5 ml of phosphate buffered saline (PBS), followed by the addition of 5 ml of fresh media. […] Viability is measured by the ability of a cell to form a colony of greater than 50 cells. […] Plates are dried and counted with a Biotran III Automatic Count Totalized (New Brunswick Scientific Co., Edison, N.J.). Mean and standard deviation of triplicate samples are determined for each drug concentration. The data are analyzed by plotting the log of the survival fraction (number of colonies in drug treated plates/number of colonies in controls) versus the drug concentration. […]

Assay [5] concerns HT-29 human colon carcinoma cells. The assay is described as follows: HT-29 human colon carcinoma cell kill in vitro, 2 hour exposure. Format: cell-based. Particulars: +FCS. Here is the method: Additionally, in another in vitro assay, Compound No. 1 effectively killed HT-29 human colon carcinoma cells, with an IC50 (+FCS) of 5 μM following a 2 hour exposure.
The subject of the next assay is P388 leukemia. Conditions: cited from earlier work.
The conditions of assay [6]: Dumas et al., JP 58,192,893; cited from earlier work.

Where “and” joins values, the source holds several entries; their conditions need not be identical. Identical values can stand only once.

One may read the Inhibition as the drop in the measured response relative to a control, in per cent. Low readings indicate a response near the control, high ones a response far below the control. As for `N.N.[Cl][Pt][Cl]` [Cisplatin, cisplatin], the Inhibition in [1] (Experiment 1, 6 mg/kg) was 97%; in assay [1] (Experiment 2, 6 mg/kg) it was 100% and 98%; in assay [1] (Experiment 2, 8 mg/kg) it was 36%. The “Mean Tumor Volume on Day 21” value in [1] (Experiment 1, 6 mg/kg) worked out at 30 ± 64 mm^3; in assay [1] (Experiment 2, 8 mg/kg), 711 ± 268 mm^3. Further, the “N.P., proportion of mice without palpable tumors on Day 21” value in assay [1] (Experiment 1, 6 mg/kg) is 6/8; in assay [1] (Experiment 2, 6 mg/kg), 8/8 and 7/8; in [1] (Experiment 2, 8 mg/kg), 0/7. Also, in [2], the “inhibition of the growth of mammary adenocarcinoma 16/c” value is “complete inhibition”. For the same compound, in the assay with ADJ-PC6 Plasmacytoma (positive control, in words), the tumor growth inhibition result is reported as “complete tumor growth inhibition”.

As a reminder, the IC50 is the concentration needed to halve the response being measured. A higher IC50 goes with weaker potency in that assay. For `OCC1OC([S][Au])C(O)C(O)C1O.OCC1OC([S][Au])C(O)C(O)C1O.c1ccc(P(CCP(c2ccccc2)c2ccccc2)c2ccccc2)cc1` [Compound No. 1], in [1] (Experiment 1, 12 mg/kg), the Inhibition is recorded as 96%; the “Mean Tumor Volume on Day 21” value is listed as 42 ± 60 mm^3; the “N.P., proportion of mice without palpable tumors on Day 21” value is 3/5. Further, in the assay with B16 melanoma (B16 melanoma in mice, ip 8, 4, 2, 1 and 0.5 mg/kg, at MTD of 3.4 μM/kg), the “average increase in lifespan (ILS)” value was found to be 32%. In the assay with B16 melanoma (mice bearing ip B16 melanoma, ip qD × 10, slash-separated figures are separate experiments), the “ILS, maximum increase in lifespan” value was 37% and 26%. For the same compound, in assay [3], the “ILS (MAX), maximum increase in lifespan” value was 45% and 65%. Besides, in assay [4], the “ILS relative to cisplatin” value is “comparable to the clinically useful antitumor agent cisplatin”; the “activity in the P388 leukemia assay” value is recorded as “particularly good activity”; the “ILS (Max), maximum increase in lifespan” value came out at 86 ± 8%. Also, half-maximal inhibition with B16 melanoma cells (IC50) required 1000 ± 200 nM. Further, the 50% inhibitory concentration (IC50) in assay [5] worked out at 5000 nM. In addition, in the assay with ADJ-PC6 Plasmacytoma (3 mg/kg/day × 10, ip), the “% Inhibition of tumor growth (Day 18)” value was found to be 50%; the “MTV, mean tumor volume on Day 18” value is reported as 295 ± 163 mm^3; the “N.P., proportion of mice without palpable tumor on Day 18” value was 0/8. For the same compound, in the assay on ADJ-PC6 Plasmacytoma (6 mg/kg/day × 10, ip), the “% Inhibition of tumor growth (Day 18)” value turned out to be 98%; the “MTV, mean tumor volume on Day 18” value is 11 ± 28 mm^3; the “N.P., proportion of mice without palpable tumor on Day 18” value was 6/7. Besides, the “inhibition of ADJPC6 Plasmacytoma” value in the assay with ADJ-PC6 Plasmacytoma (another experiment, same dose (6 mg/kg/day × 10, ip) and schedule) stood at 23%.

Take `CC(=O)OC[C@H]1O[C@@H]([S-])[C@H](OC(C)=O)[C@@H](OC(C)=O)[C@@H]1OC(C)=O.CCP(CC)CC.[Au+]` [auranofin]: the “activity in an intraperitoneal P388 leukemia tumor model” value with P388 leukemia (Mirabelli et al. 1984) is given as “respectable activity”. In addition, the “antitumor effects in animals bearing P388 leukemia” value with P388 leukemia (Simon et al. 1981, Mirabelli et al. 1985) is recorded as “significant antitumor effects”.

In the case of `CC[PH](CC)(CC)[Au][Se]C1OC(COC(C)=O)C(OC(C)=O)C(OC(C)=O)C1OC(C)=O` (stereo not shown) [selenium analog of auranofin], the antiarthritic utility entry in assay [6] was “antiarthritic agents”.

Regarding “μ-1,2-Bis(Diphenylphosphino)Ethane]Bis[(1-Thio-β-D-Galactopyranosato-S)Gold(I)] [compound 4]”, the “ILS (MAX), maximum increase in lifespan” value in assay [3] was found to be 37%. For the same compound, the “ILS (Max), maximum increase in lifespan” value in assay [4] is 85% and 100% and 147%.

As for “μ-8 1,2-Bis(Diphenylphosphino)Ethane]Bis[(2,3,4,6-Tetra-O-Acetyl-1-Thio-α-D-Mannopyranosato-S)Gold(I)] [compound 3]”, in assay [4], the “ILS relative to cisplatin” value is listed as “comparable to the clinically useful antitumor agent cisplatin”; the “activity in the P388 leukemia assay” value is “particularly good activity”; the “ILS (Max), maximum increase in lifespan” value was 30% and 25%.

For “μ-[1,2-Bis(Diphenylphosphino)Ethane]-bis [compound 8, μ-[1,2-Bis(Diphenylphosphino)Ethane]-bis [1-Thio-D-Ribofuranosato-S)Gold(I)]]”, in [4], the “ILS (Max), maximum increase in lifespan” value was 50% and 56%.

Take “μ-[1,2-Bis(diphenylphosphino)ethane]-bis[1-seleno-β-D-glucopyranosato-se)gold(I)] [compound 7]”: the “ILS (MAX), maximum increase in lifespan” value in assay [3] came to 46%. In addition, the “ILS (Max), maximum increase in lifespan” value in [4] was 36% and 27%.

In the case of “μ-[1,2-Bis(diphenylphosphino)ethane]bis[1,thio-α-D-mannopyranosato-S)gold(I)] [compound 5]”, in assay [4], the “ILS (Max), maximum increase in lifespan” value was 90% and 74%.

With “μ-[1,2-Bis(diphenylphosphino)ethane]bis[2,3,4,6-tetra-O-acetyl-1-thio-β-D-glucopyranosato-S)gold(I)] [compound 2]”, the “ILS (MAX), maximum increase in lifespan” value in assay [3] stood at 67%. In assay [4], the “ILS relative to cisplatin” value was “comparable to the clinically useful antitumor agent cisplatin”; the “activity in the P388 leukemia assay” value is recorded as “particularly good activity”; the “ILS (Max), maximum increase in lifespan” value worked out at 95%.

For “μ-[1,3-Bis(diphenylphosphino)propane]bis[1-thio-β-D-glucopyranosato-S)gold(I)] [compound 6]”, in [3], the “ILS (MAX), maximum increase in lifespan” value stood at 35%. Further, the “ILS (Max), maximum increase in lifespan” value in [4] is 28% and 56% and 41%.

Values taken from US4645756A, “[α,ω-bis(diphenylphosphino)hydrocarbon]bis[(thiosugar)gold] and bis[(selenosugar)gold] derivatives, pharmaceutical compositions and method of use” (priority 1985, dated 1987).
